Measured values published in patent US5272175A, “Substituted tyrosyl diamide compounds” (priority 1992, dated 1993).
pIC50: −log10 of the molar value. Counter-ions that a name gives are not always drawn. Like-named read-outs stand apart in the source and are kept apart here.

Legend:
mice [1] = test: Writhing Assay (phenylbenzoquinone (PBQ)-induced writhing), analgesic activity; format: in vivo, CD Charles River mice; settings: for ED50: Mus musculus, 50% of mice with writhes <= half control median
Description: The "Writhing Assay" is one of the most widely-used experimental procedures for measuring the analgesic activity of different narcotic and nonnarcotic analgesic agents, and involves the continuous, chemically-induced pain of visceral origin to an animal, such as a mouse or rat. [Gyires et al., Arch. int. Pharmacodyn, 267, 131-140 (1984); C. Vander Wende et al., Fed. Proc., 15, 494 (1956); Koster et al., Fed. Proc., 18, 412 (1959); and Witken et al., J. Pharmacol. Exp. Ther., 133, 400-408 (1961).] Chemicals which may be used to induce this pain include phenylbenzoquinone (PBQ) and acetic acid. As a result of the chemical irritation to the animal, a characteristic stretching and writhing of the animal (dorsiflexion of the animal's back, extension of its hindlimbs and the strong contraction of its abdominal musculature) will generally occur. […] Drugs which reduce the number of writhes of the animal appear to restore the normal nociceptive threshold of the animal.
This assay was conducted generally in the manner described by R. I. Taber, "Predictive Value of Analgesic Assays in Mice and Rats," Advances in Biochemical Phychopharmacology, 8, 191 (1974).
Two hundred CD Charles River mice, weighing 20 to 30 grams, were used in this assay.
Twenty-five minutes after subcutaneous administration, and fifteen minutes after oral administration, to the mice of 10 mg per kilogram (mpk) of body weight of either a tyrosyl diamide compound of the invention (hereinafter "test compound"), or of the Jacobson Compound, 0.1 mL per 10 g of body weight of a 0.025% w/v solution of phenylbenzoquinone (PBQ) was injected intraperitoneally into each mouse. Some mice were given saline in place of a test compound, or of the Jacobson Compound, and were used as a control group.
Five minutes later, each mouse was individually placed into a glass beaker for observation, and the number of writhes occurring during the following ten-minute period was counted.
A compound was considered to be "active" (to have produced analgesia in a mouse) if, after the administration of 10 mg per kilogram (mpk) of body weight of the compound to the mouse, the number of writhes elicited by a mouse injected with PBQ was equal to, or less than, one-half the median number of writhes recorded for the saline-treated control group of mice that day, as described by R. I. Taber, supra.
The standard initial screening dose of a test compound employed in this assay was 10 mpk […] for both routes of administration. If this initial screening dose of the compound produced analgesia in seven of ten mice, then the effect of additional doses of the compound on the writhing response was evaluated, and then the ED50 value (that dose of a compound which produced analgesia in 50% of the mice to which the compound was administered) was calculated. A maximum likelihood function was used to determine the ED50 value. (The slopes of the dose-response curves for the compounds analyzed were compared as described by Tallarida and Murray, Manual of Pharmacologic Calculations, Page 1 (Springer Verlag, N.Y., 1981)).

δ opioid receptors = δ opioid receptors (Rattus norvegicus, UniProt P33533); test: Opiate Binding Assay, displacement of 3[H]-DSLET from δ receptors; settings: for Mean IC50 μ/δ Ratio: ratio of mean IC50 values for μ and δ, above 1.0 = more δ specific
μ opioid receptors = μ opioid receptors (Rattus norvegicus, UniProt P33535); test: Opiate Binding Assay, displacement of 3[H]-DAMPGO from μ receptors
[2] = system: brain opioid receptor sites; settings: cited from earlier work
opioid activity = settings: cited from earlier work
mice [3] = settings: general statement on both tests; cited from earlier work
mice [4] = settings: general statement on both tests; cited from earlier work; remark: listed apart in the source
mice [5] = test: Tail Flick Assay; format: in vivo, Male Charles River albino mice; settings: Mus musculus, sc, subcutaneous, dose producing half maximum possible increase in latency (to 7.5 seconds)
Description: (§1) The "Tail Flick Assay" and the "Hot Plate Assay" (also known as the "Hind Paw Lick Assay") use thermal pain of transient duration, and are tests in which the pain threshold of the mice or rats being analyzed has not been altered. They are useful for evaluating the ability of a compound or drug to increase the animal's pain threshold (i.e. prolong response latencies), rather than to restore normal thresholds.
(§2) The heat-induced response to the Tail Flick Assay is a reflex reaction mediated at the level of the spinal cord. The heat-induced response to the Hot Plate Assay, however, is a more complex behavior requiring integration at higher centers in the brain. […]
(§3) Tail flick response latencies (defined as the time that elapsed between the onset of a high intensity beam of light and the reflex removal of the mouse's tail) and hot plate response latencies (defined as the time that elapsed between the placement of a mouse on a 55 degrees Celsius surface and a lick of the hind paw) were separately, but consecutively, measured before (baseline) and again at fixed intervals after subcutaneous administration of the Test Tyrosyl Diamide Compound, or after the administration of saline (controls). […] The significance of any increase in tail flick response latency or hot plate response latency is determined using analyses of variance. […]

mice [6] = test: Hot Plate Assay (Hind Paw Lick Assay); format: in vivo, Male Charles River albino mice; settings: Mus musculus, sc, subcutaneous, 55 degrees Celsius, dose producing half maximum possible increase in latency (to 25 seconds)
Description: as §1, §2, §3

[7] = 0.25 h, oral, PBQ i.p. 15 min after compound, read-out: ED50, Writhing Assay, Oral (p.o.)
[8] = sc, 25 min, subcutaneous, PBQ i.p. 25 min after compound, read-out: ED50, Writhing Assay, Subcutaneous (S.C.)

Chain of δ opioid receptors (P33533 whole entry): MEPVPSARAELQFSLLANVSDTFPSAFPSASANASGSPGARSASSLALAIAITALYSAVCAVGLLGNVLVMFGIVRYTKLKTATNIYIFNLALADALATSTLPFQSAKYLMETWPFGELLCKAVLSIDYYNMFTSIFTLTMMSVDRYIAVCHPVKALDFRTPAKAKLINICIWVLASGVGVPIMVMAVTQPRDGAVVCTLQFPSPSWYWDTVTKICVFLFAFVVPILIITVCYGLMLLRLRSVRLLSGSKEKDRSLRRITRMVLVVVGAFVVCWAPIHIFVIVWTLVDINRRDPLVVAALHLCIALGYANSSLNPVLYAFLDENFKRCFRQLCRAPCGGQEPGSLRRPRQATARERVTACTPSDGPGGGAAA
Chain of μ opioid receptors (P33535 whole entry): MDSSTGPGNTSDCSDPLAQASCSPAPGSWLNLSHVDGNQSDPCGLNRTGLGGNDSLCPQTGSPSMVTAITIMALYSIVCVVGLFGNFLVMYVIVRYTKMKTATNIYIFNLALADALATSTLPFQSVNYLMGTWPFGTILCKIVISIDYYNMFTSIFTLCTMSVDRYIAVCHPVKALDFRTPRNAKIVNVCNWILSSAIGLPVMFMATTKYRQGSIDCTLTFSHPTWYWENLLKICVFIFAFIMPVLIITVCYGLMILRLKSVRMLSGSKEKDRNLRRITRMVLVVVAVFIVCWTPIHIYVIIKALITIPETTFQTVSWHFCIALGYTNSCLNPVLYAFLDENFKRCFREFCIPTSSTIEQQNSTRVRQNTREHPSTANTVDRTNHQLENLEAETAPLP

## CC(=O)N[C@@H](Cc1ccccc1)C(=O)NCC(C)(C)NC(=O)[C@@H](N)Cc1ccc(O)cc1 [Jacobson Compound, reference compound]
Mice [1]; [7]
  ED50: 4.1 mg/kg
Mice [1]; [8]
  ED50: 1.6 mg/kg
δ opioid receptors
  pIC50: 8.70
  Mean IC50 μ/δ Ratio: 0.3
μ opioid receptors
  pIC50: 9.22

## CSCC[C@H](NC(=O)[C@H](Cc1ccccc1)NC(=O)CNC(=O)CNC(=O)[C@@H](N)Cc1ccc(O)cc1)C(=O)O [methionine enkephalin, H2 N-Tyr-Gly-Gly-Phe-Met-OH]
[2]
  binding to opiate / brain opioid receptor sites: bind to the same receptor sites as do the opiates
Opioid activity
  opioid / morphine-like activity: some weak morphine-like actions

## CC(=O)N[C@@H](CCc1ccccc1)C(=O)NCC(C)(C)NC(=O)[C@@H](N)Cc1c(C)cc(O)cc1C [Example 18, αS-(acetylamino)-N-[2-[[2S-amino-3-(4-hydroxy-2,6-dimethylohenyl)-1-oxopropyl]amino]-2-methyloropyl]-benzenebutanamide, hydrochloride]
Mice [1]; [8]
  ED50: 5 mg/kg
δ opioid receptors
  pIC50: 8.33
  Mean IC50 μ/δ Ratio: 0.07
μ opioid receptors
  pIC50: 9.48

## CC(=O)N[C@@H](Cc1ccccc1)C(=O)NCC(C)(C)NC(=O)[C@@H](N)Cc1c(C)cc(OC(C)=O)cc1C [Example 16, αS-(acetylamino)-N-2-[2-[[4-(acetyloxy)-2,6-dimethylphenyl]-2S-amino-1-oxopropyl]amino]-2-methylpropyl]benzenepropanamide, hydrochloride]
Mice [1]; [8]
  ED50: 5 mg/kg
δ opioid receptors
  Mean IC50 μ/δ Ratio: 0.7
δ opioid receptors; read-out: Mean IC50 Value, δ, rat forebrain membranes, 3[H]-DSLET 1.0 nM, 37° C., pH 7.4
  pIC50: 9.11
μ opioid receptors; read-out: Mean IC50 Value, μ, rat forebrain membranes, 3[H]-DAMPGO 2.0 nM, 37° C., pH 7.4
  pIC50: 9.29

## Cc1cc(O)cc(C)c1C[C@H](N)C(=O)NC(C)(C)CNC(=O)[C@H](Cc1ccccc1)NC(=O)OCc1ccccc1 [Example 10, Phenylmethyl[1S-[[2-[[2S-amino-3-(4-hydroxy-2,6-dimethylohenyl)-1-oxopropyl]amino]-2-methylpropyl]-amino]carbonyl]-2-phenylethyl]carbamate, monohydrochloride]
Mice [1]; [8]
  ED50: 5 mg/kg
δ opioid receptors
  pIC50: 8.40
  Mean IC50 μ/δ Ratio: 0.8
μ opioid receptors
  pIC50: 8.48

## CN1CC[C@]23c4c5ccc(O)c4O[C@H]2[C@@H](O)C=C[C@H]3[C@H]1C5 [morphine]
Mice [3]
  activity in Tail Flick Assay: active in both of these tests
Mice [4]
  activity in Hot Plate Assay: active in both of these tests

## CC(C)C[C@H](NC(=O)[C@H](Cc1ccccc1)NC(=O)CNC(=O)CNC(=O)[C@@H](N)Cc1ccc(O)cc1)C(=O)O [leucine enkephalin, H2 N-Tyr-Gly-Gly-Phe-Leu-OH]
[2]
  binding to opiate / brain opioid receptor sites: bind to the same receptor sites as do the opiates
Opioid activity
  opioid / morphine-like activity: some weak morphine-like actions

## Cc1cc(CC(=O)O)n(C)c1C(=O)c1ccc(Cl)cc1 [Zomax]
Mice [3]
  activity in Tail Flick Assay: little activity
Mice [4]
  activity in Hot Plate Assay: little activity

## CNC(=O)N[C@@H](Cc1ccccc1)C(=O)NCC(C)(C)NC(=O)[C@@H](N)Cc1c(C)cc(O)cc1C [Example 37, αS-amino-N-1,1-dimethyl-2-[2S-[[(methylamino)carbonyl]amino]-1-oxo-3-phenylpropyl]amino]ethyl]-4-hydroxy-2,6-dimethylbenzeneoropanamide, monohydrochloride]
Mice [1]; [8]
  ED50: 5 mg/kg
δ opioid receptors
  pIC50: ~8.70
μ opioid receptors
  pIC50: > 8.00

## COc1ccc2c3c1O[C@H]1[C@@H](O)C=C[C@H]4[C@@H](C2)N(C)CC[C@@]341 [codeine]
Mice [3]
  activity in Tail Flick Assay: active in both of these tests
Mice [4]
  activity in Hot Plate Assay: active in both of these tests

## CC(=O)Oc1ccccc1C(=O)O [aspirin]
Mice [3]
  activity in Tail Flick Assay: little activity
Mice [4]
  activity in Hot Plate Assay: little activity

## CC(=O)N[C@@H](Cc1c(C)cccc1C)C(=O)NCCNC(=O)[C@@H](N)Cc1c(C)cc(O)cc1C [Example 52, αS-(Acetylamino)-N-[2-[[2S-amino-3-(4-hydroxy-2,6-dimethylphenyl)-1-oxopropyl]amino]ethyl]-2,6-dimethylbenzeneoropanamide, hydrochloride]
Mice [1]; [8]
  ED50: 5 mg/kg
δ opioid receptors
  pIC50: 7.49
μ opioid receptors
  pIC50: 9.22

## CC(=O)N[C@@H](Cc1ccccc1)C(=O)NCC(C)(C)NC(=O)[C@@H](N)Cc1c(C)cc(O)cc1C [Example 47, αS-(Acetylamino)-N-[2-[[[2S-amino-3-(4-hydroxy-2,6-dimethylphenyl) -1-oxopropyl]amino]-2-methylpropyl]-benzenepropanamide, monohydrochloride]
Mice [1]
  potency rank in the Writhing Assay: most potent compound of the invention tested
Mice [1]; [7]
  ED50: 0.6 mg/kg
Mice [1]; [8]
  ED50: 0.2 mg/kg
Mice [1]; oral
  potency relative to the Jacobson Compound, Writhing Assay, oral: seven times more potent
Mice [1]; subcutaneous
  potency relative to the Jacobson Compound, Writhing Assay, subcutaneous: eight times more potent
Mice [5]
  ED50: 1.9 mg/kg
Mice [6]
  ED50: 2.4 mg/kg
δ opioid receptors
  pIC50: 9.52
  Mean IC50 μ/δ Ratio: 1.3
μ opioid receptors
  pIC50: 9.40
